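The compound was tested at five concentrations on cells cultured in 96-well plates, with a 48-hour exposure period. Here, GI50 denotes the concentration required for 50% inhibition of growth. TGI marks complete inhibition of growth.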
How the values were obtained:
Experiment in all cases: NCI-60 cell line screen, 48 h
[1] = system: SF-268 CNS
[2] = system: CCRF-CEM leukemia
[3] = system: K-562 leukemia
[4] = system: A549 NSCLC
[5] = system: SK-MEL-5 melanoma
[6] = system: SK-MEL-28 melanoma
[7] = system: TK-10 renal
[8] = system: RPMI-8226 leukemia
[9] = system: HCC-2998 colon
[10] = system: NCI/ADR-RES ovarian

SMILES	TGI [1]	TGI [2]	TGI [3]	TGI [4]	TGI [5]	TGI [6]	TGI [7]	TGI [8]	TGI [9]	GI50 [1]	GI50 [8]	GI50 [4]	GI50 [5]	GI50 [6]	GI50 [9]	GI50 [7]	GI50 [2]	GI50 [10]	TGI [10]	GI50 [3]
N#Cc1ccccc1Nc1ccccc1S	> 100 µM	77.4 µM	> 100 µM	> 100 µM	44.8 µM	> 100 µM	> 100 µM	–	–	–	–	–	–	–	–	–	–	–	–	–
O=C1c2ccccc2C(=O)c2sc(Nc3ccc(Cl)c(Cl)c3)nc21	12.8 µM	5.15 µM	17.9 µM	54.5 µM	5.83 µM	20.7 µM	21.8 µM	5 µM	29.3 µM	–	–	–	–	–	–	–	–	–	–	–
COC(=O)C1=Cc2c(OC)cc(OC)c(OC)c2[C@H](c2cc(OC)c(OC)cc2OC)C1C(=O)OC (stereo partly specified)	> 100 µM	> 100 µM	46.9 µM	> 100 µM	> 100 µM	> 100 µM	> 100 µM	> 100 µM	> 100 µM	–	–	–	–	–	–	–	–	–	–	–
CC[O-].CC[O-].O=C([CH-]C(=O)c1ccccc1)c1ccccc1.O=C([CH-]C(=O)c1ccccc1)c1ccccc1.[Ti+4]	> 100 µM	–	–	> 100 µM	> 100 µM	> 100 µM	> 100 µM	> 100 µM	> 100 µM	> 100000 nM	45.4 µM	> 100000 nM	> 100 µM	> 100000 nM	> 100000 nM	> 100000 nM	–	–	–	–
CON	> 100 µM	> 100 µM	–	> 100 µM	> 100 µM	> 100 µM	> 100 µM	> 100 µM	> 100 µM	> 100000 nM	> 100 µM	> 100000 nM	> 100 µM	> 100000 nM	> 100000 nM	> 100000 nM	> 100000 nM	> 100000 nM	> 100 µM	–
O=C(Nc1ccc(S(=O)(=O)NC2CCCCCC2)cc1)C(c1ccccc1)S(=O)(=O)c1ccc(F)cc1 (stereo unspecified)	6.11 µM	> 100 µM	–	2.9 µM	1.72 µM	1.02 µM	3.66 µM	–	2.35 µM	933 nM	–	854 nM	0.404 µM	245 nM	868 nM	331 nM	577 nM	1240 nM	4.66 µM	–
Cc1cc2nc3c4ccccc4n(CCN(C)C)c3nc2cc1C	5.86 µM	13.6 µM	10.7 µM	11.5 µM	3.19 µM	4.73 µM	14.1 µM	–	4.13 µM	1450 nM	–	1280 nM	1.7 µM	2090 nM	1470 nM	2980 nM	1990 nM	1390 nM	12.7 µM	1.55 µM
CCOC(=O)C1CC/C(=C(/C#N)C(=O)OC)N1 (stereo unspecified)	> 100 µM	> 100 µM	> 100 µM	> 100 µM	> 100 µM	> 100 µM	> 100 µM	> 100 µM	> 100 µM	–	–	–	–	–	–	–	–	–	–	–
CC(=O)/C=C/C1=C(c2ccsc2)c2ccccc2CC1	41.1 µM	47.6 µM	44 µM	37.5 µM	31.6 µM	> 100 µM	> 100 µM	47.6 µM	36.2 µM	19500 nM	23.2 µM	17400 nM	16.3 µM	49100 nM	18200 nM	33600 nM	23600 nM	–	–	21.3 µM
O=P1(O)c2ccccc2CS(=O)(=O)Cc2ccccc21	> 100 µM	> 100 µM	> 100 µM	> 100 µM	> 100 µM	> 100 µM	> 100 µM	–	> 100 µM	–	–	–	–	–	–	–	–	–	> 100 µM	–
O=C1CCC(=O)C(C(=O)CCC(=O)Nc2cccc(Cl)c2)C1 (stereo unspecified)	–	> 100 µM	> 100 µM	> 100 µM	> 100 µM	–	> 100 µM	> 100 µM	> 100 µM	–	–	–	–	–	–	–	–	–	–	–
C=C(C)[C@@H]1CC[C@]2(C)[C@H](C=CC3=C4C[C@@](C)(CO)CC[C@]4(C)CC[C@]32C)[C@@]1(C)CCCN	3.25 µM	5.56 µM	5.04 µM	3.18 µM	–	3.25 µM	3.36 µM	–	2.14 µM	1610 nM	–	1600 nM	–	1820 nM	793 nM	1780 nM	2120 nM	1740 nM	3.37 µM	1.8 µM
CN(NC(=O)CC(=O)NN(C)C(=S)c1ccc(Cl)cc1)C(=S)c1ccc(Cl)cc1	> 100 µM	> 100 µM	> 100 µM	71.7 µM	46 µM	54.5 µM	> 100 µM	> 100 µM	–	19600 nM	12.6 µM	3860 nM	15.4 µM	15000 nM	–	23000 nM	7940 nM	13600 nM	63.7 µM	16.4 µM
CCCCCc1c(C)[nH]c(/C=c2\[nH]/c(=C3/C=c4ccccc4=N3)cc2OC)c1C	2.43 µM	6.03 µM	–	0.636 µM	0.11 µM	1.22 µM	0.716 µM	0.682 µM	5.88 µM	77 nM	0.0614 µM	73.2 nM	0.0324 µM	125 nM	45.2 nM	50.4 nM	43.5 nM	170 nM	3.72 µM	–
OC1C2C=CCC1CCC2 (stereo unspecified)	> 100 µM	> 100 µM	> 100 µM	> 100 µM	> 100 µM	> 100 µM	> 100 µM	> 100 µM	–	–	–	–	–	–	–	–	–	–	–	–
Cc1cc2c(cc1C)[n+]([O-])c(-c1c(Cl)cccc1Cl)c(N)[n+]2[O-]	> 100 µM	–	> 100 µM	98.9 µM	41.7 µM	89.6 µM	> 100 µM	> 100 µM	> 100 µM	–	–	–	–	–	–	–	–	–	–	–
CC(C)NC(=O)O/N=C1\CCC2[C@@H]3CC=C4C[C@@H](OC(=O)NC(C)C)CC[C@]4(C)C3CC[C@]12C (stereo partly specified)	3.22 µM	5.03 µM	5.85 µM	5.11 µM	–	3.26 µM	3.15 µM	2.96 µM	5.06 µM	–	–	–	–	–	–	–	–	–	–	–
CCOC(=O)C1(Cc2ccc3ccccc3c2)CCCCCN1 (stereo unspecified)	> 100 µM	–	68.7 µM	> 100 µM	–	88.9 µM	> 100 µM	27.6 µM	57.3 µM	–	–	–	–	–	–	–	–	–	–	–
CCOc1ccc(NC(=O)CCC(=O)NN)cc1	> 100 µM	> 100 µM	> 100 µM	> 100 µM	> 100 µM	> 100 µM	> 100 µM	> 100 µM	> 100 µM	–	–	–	–	–	–	–	–	–	–	–
